Data from the CheMixHub viscosity set.

Assay: xn = mol fraction of the nth substance listed

Nc1ccccc1 + CN1CCCC1=O
viscosity [mPa·s], 101 kPa
Conditions | x2 = 0.0954 | x2 = 0.1918 | x2 = 0.2892 | x2 = 0.3876 | x2 = 0.487 | x2 = 0.5875 | x2 = 0.689 | x2 = 0.7915 | x2 = 0.8952
303.15 K | 2.963 | 2.89 | 2.81 | 2.705 | 2.55 | 2.34 | 2.15 | 1.964 | 1.76
308.15 K | 2.57 | 2.51 | 2.445 | 2.34 | 2.187 | 2.035 | 1.875 | 1.736 | 1.571
313.15 K | 2.25 | 2.2 | 2.13 | 2.05 | 1.95 | 1.83 | 1.7 | 1.58 | 1.445
318.15 K | 1.99 | 1.94 | 1.89 | 1.825 | 1.735 | 1.623 | 1.52 | 1.417 | 1.309

C1COCCOCCOCCOCCO1 + CN(C)C=O
101 kPa
Conditions | viscosity [mPa·s]
293.15 K, x1 = 0.00344 | 0.8668
293.15 K, x1 = 0.0059 | 0.8771
293.15 K, x1 = 0.008679 | 0.8888
293.15 K, x1 = 0.01131 | 0.8997
293.15 K, x1 = 0.01335 | 0.9089
293.15 K, x1 = 0.01528 | 0.9166
298.15 K, x1 = 0.003438 | 0.8165
298.15 K, x1 = 0.006613 | 0.8287
298.15 K, x1 = 0.009181 | 0.8386
298.15 K, x1 = 0.01161 | 0.8485
298.15 K, x1 = 0.0137 | 0.8568
298.15 K, x1 = 0.01547 | 0.8639
303.15 K, x1 = 0.002196 | 0.7595
303.15 K, x1 = 0.004812 | 0.7687
303.15 K, x1 = 0.006882 | 0.7758
303.15 K, x1 = 0.008916 | 0.7832
303.15 K, x1 = 0.01094 | 0.7907
303.15 K, x1 = 0.01259 | 0.797
308.15 K, x1 = 0.003532 | 0.7213
308.15 K, x1 = 0.006367 | 0.7307
308.15 K, x1 = 0.008768 | 0.7387
308.15 K, x1 = 0.01108 | 0.7463
308.15 K, x1 = 0.01321 | 0.7538
308.15 K, x1 = 0.01506 | 0.7599

CCC(O)CO (centres undefined) + CN(C)C=O
308.15 K, 101 kPa
Conditions | viscosity [mPa·s]
x1 = 0.0519 | 0.748
x1 = 0.1008 | 0.855
x1 = 0.2013 | 1.113
x1 = 0.2983 | 1.444
x1 = 0.4099 | 2.065
x1 = 0.4883 | 2.645
x1 = 0.5694 | 3.576
x1 = 0.7139 | 7.387
x1 = 0.8896 | 16.22
x1 = 0.9489 | 21.9

Nc1ccccc1 + CN(C)C=O
viscosity [mPa·s], 101.33 kPa
Conditions | x2 = 0.1013 | x2 = 0.203 | x2 = 0.3061 | x2 = 0.4006 | x2 = 0.5013 | x2 = 0.6024 | x2 = 0.6967 | x2 = 0.8002 | x2 = 0.9059
303.15 K | 2.783 | 2.508 | 2.273 | 2.048 | 1.812 | 1.571 | 1.341 | 1.115 | 0.908
313.15 K | 2.131 | 1.957 | 1.793 | 1.64 | 1.474 | 1.3 | 1.135 | 0.96 | 0.801

COCCOCCOCCO + CN(CCO)CCO
viscosity [mPa·s], 101.33 kPa
Conditions | x2 = 0.1004 | x2 = 0.2133 | x2 = 0.2964 | x2 = 0.3993 | x2 = 0.4991 | x2 = 0.5993 | x2 = 0.7001 | x2 = 0.8006 | x2 = 0.9002
298.15 K | 6.741 | 8.012 | 9.103 | 10.85 | 13.35 | 17.08 | 22.81 | 31.15 | 50.17
313.15 K | 4.491 | 5.038 | 5.882 | 6.508 | 7.732 | 9.412 | 12.03 | 15.99 | 22.23
323.15 K | 3.445 | 3.861 | 4.307 | 4.93 | 5.674 | 6.845 | 8.383 | 10.78 | 14.36

CCNCC + CNC(C)=O
308.15 K, 101 kPa
Conditions | viscosity [mPa·s]
x2 = 0.0413 | 0.2729
x2 = 0.1815 | 0.4061
x2 = 0.3505 | 0.6727
x2 = 0.5056 | 1.02
x2 = 0.5776 | 1.254
x2 = 0.6715 | 1.563
x2 = 0.7881 | 2.064
x2 = 0.8957 | 2.614
x2 = 0.9724 | 3.097
